Series [1] relates to Plasmodium falciparum Dd2(AZ^R). The series is described as follows: [3H]hypoxanthine incorporation antimalarial assay, azithromycin-resistant mutant Dd2(AZ^R). It is filed as cell-based. The procedure: (§1) The activity of the test compounds against P. falciparum in vitro was determined using the tritiated hypoxanthine incorporation assay of Desjardins et al. and additionally modified by Milhous and Chulay (Chulay, Haynes, & Diggs, [1983]; Milhous, Weatherly, Bowdre, & Desjardins, [1985]).
(§2) Compounds were dissolved in DMSO and subsequently diluted in the culture medium (RPMI 1640) supplemented with 10% v/v human plasma. Serial 1:2 drug dilutions were prepared in triplicate in microtitre plates. Culture medium supplemented with 10% v/v human plasma and type A Rhesus positive human erythrocytes infected with P. falciparum strains was added to yield a haematocrit of 3% and a parasitaemia of 0.25–0.55%. The plates were incubated at 37°C in a modular incubator flushed with a mixture of 5% oxygen, 3% carbon dioxide, and 92% nitrogen for 48 h, and then [^3H]hypoxanthine was added to give a final concentration of 12.5–16 μCi·ml^−1. After incubation for additional 24 h, particulate matter was harvested on fibreglass strips and hypoxanthine incorporation determined by scintillation spectrophotometry. […] Delayed death experiments were performed by this standard method but extending the incubation time with the drug up to 96 h.

Series [2] in a line: Pharmacokinetics in P. falciparum infected and uninfected humanized mice. The conditions noted are these: for Cmax / Tmax: NODscidβ2m^−/−, mouse, whole blood, po, 12.5 mg/kg; for Cmax: C max, blood; for Cmax / Tmax / DNAUC(0–24): oral 12.5 mg·kg^−1, mean (SD); for Tmax: t max; for I/U (DNAUC infected versus uninfected): humanized mice, oral 12.5 mg·kg^−1. As to the method:
For pharmacokinetic (PK) studies in mice, animals were dosed either by intravenous (i.v.) or oral (p.o.) route.
For studies performed in Swiss albino CD‐1 mice (Harlan Laboratories, Spain), in order to obtain simultaneous blood and plasma profiles and blood‐to‐plasma (B/P) ratio, PK was performed using terminal sampling of N = 3 animals per time point and data evaluated using composite analysis. For studies performed in P. falciparum infected and non‐infected NODscidβ2m^−/− mice (Charles River Laboratories, France), only whole blood was obtained by serial sampling of N = 3 animals using tail puncture.
For analysis of whole blood samples, 25 μl of fresh blood were mixed with 25 μl of saponin solution (0.1% in water) and immediately frozen on dry ice. Plasma was obtained by centrifugation of fresh blood at 2,500 g for 10 min. Both blood and plasma samples were stored frozen at −80°C until analysis.
Diluted blood and plasma samples were processed under standard liquid–liquid extraction procedures using acetonitrile containing internal standard (clarithromycin, 100 ng·ml^−1) and analysed by LC–MS/MS in positive ion mode with electrospray. Samples were assayed for parent compound using a Sciex API 4000 and Sciex API‐2000 Triple Quadrupole Mass Spectrometer (Sciex, Division of MDS Inc., Toronto, Canada), against a series of matrix matched calibration curve standards, using multiple reaction monitoring (MRM) at the specific transitions for each compound. Non‐compartmental analysis was performed using WinNonlin, version 4.1 (Pharsight, Mountain View, CA), and the main pharmacokinetic parameters were estimated.

Series [3] concerns P. falciparum 3D7^0087/N9. The series is described as follows: P. falciparum murine model (humanized mice), 4-day test. The conditions noted are these: for ED90: oral QD for 4 days, parasitaemia at day 7, humanized mice. It is filed as in vivo, Plasmodium falciparum. The procedure:
The in vivo efficacy evaluation of the compounds was performed using a P. falciparum murine model of malaria in non‐myelodepleted NOD. Cg‐Prkdc^ scid –β2m^ tm1Unc ‐scid IL2R_null (NODscidβ2m^−/−) mice engrafted with human erythrocytes as described previously (Angulo‐Barturen et al., [2008]; Jimenez‐Diaz et al., [2005]; Jimenez‐Diaz et al., [2009]; Jimenez‐Diaz et al., [2009]), as this model enables testing of P. falciparum strains with high infectious burden. Briefly, groups of three mice engrafted with human erythrocytes were infected with 20 × 10^6 of P. falciparum 3D7^0087/N9‐infected erythrocytes/mouse by intravenous route. The mice were randomly assigned to their corresponding experimental groups. The treatment of oral doses QD for 4 days started at day 3 after infection. Parasitaemia was measured at days 3, 5, and 7 post‐infection. The therapeutic efficacy was expressed as the dose (mg·kg^−1) that reduced parasitaemia in peripheral blood of mice at day 7 after infection by 90% (ED90) with respect to vehicle‐treated mice. Chloroquine was included as quality control for each in vivo assay. Efficacy is expressed as the daily dose (ED90), or equivalent exposure (AUCED90), administered to mice necessary to reduce parasitaemia at day 7 by 90% with respect to vehicle‐treated mice. The ED90 is estimated by fitting a four‐decade logistic equation for the log10 [parasitaemia at day 7] versus the log10 [dose] using GraphPad Prism 5.01 (GraphPad Software Inc., San Diego, CA).

Series [4] relates to Plasmodium falciparum K1 (CQ,PY). In words: [3H]hypoxanthine incorporation antimalarial assay, strain K1. It is filed as cell-based. The procedure:
as §1, §2

Series [5] deals with Plasmodium falciparum W2 (chloroquine/pyrimethamine resistant). In words: [3H]hypoxanthine incorporation antimalarial assay, strain W2. The class given is cell-based. The conditions noted are these: W2, 72 h, read-out: Plasmodium falciparum IC50 W2. The procedure: as §1, §2
For series [6], the system named is Plasmodium falciparum 3D7A (sensitive). The series is described as follows: [3H]hypoxanthine incorporation antimalarial assay, strain 3D7A. The class given is cell-based. Particulars: 72 h of incubation, N = 3. The procedure: as §1, §2
The subject of series [7] is panel of five bacterial strains. The series is described as follows: Antibacterial screen, summary over panel of five bacterial strains. It is filed as cell-based. The procedure:
Antibacterial activity of compounds was determined by a standard broth microdilution method (Clinical Laboratory Standard Institute CLSI, [2009]), except that for Streptococcus strains lysed blood was substituted with 5% horse serum in the testing medium. Azithromycin and chloroquine were used as controls. The activities are expressed as minimum inhibitory concentrations (MICs) in units of μg·ml^−1. The compounds have been tested in at least two and up to five independent experiments generating same or similar results (a range of one to two dilutions between tests was considered acceptable which is in accordance to CLSI acceptable quality control ranges). The organisms tested represented macrolide sensitive Gram‐positive pathogens that are mainly targeted by macrolide antibiotics. Tested streptococci were clinical isolates Streptococcus pneumoniae SP030 and Streptococcus pyogenes 3565 from internal strain collection, and other strains were obtained from ATCC bioresource centre, Staphylococcus aureus ATCC13709, Haemophilus influenzae ATCC49247, and Moraxella catarrhalis ATCC23246. Double dilutions of tested compounds were prepared using TECAN Genesis 150. Bacteria were grown on appropriate agar plates (Becton Dickinson, USA)—Columbia agar with 5% sheep blood for streptococci and M. catarrhalis, Mueller‐Hinton chocolate agar for H. influenzae , and Mueller‐Hinton agar for staphylococci.

[8] abbreviates: DD2, 48 h, read-out: IC50 Dd2(AZ^R) 48 h.
[9] abbreviates: DD2, 96 h, read-out: IC50 Dd2(AZ^R) 96 h.
Setting [10] is: K1, 72 h, read-out: IC50 K1 (CQ,PY).

Molecules are shown by their SMILES. Like-named read-outs stand apart in the source and are kept apart here.

Take `CC[C@H]1OC(=O)[C@H](C)[C@@H](O[C@H]2C[C@@](C)(OC)[C@@H](O)[C@H](C)O2)[C@H](C)[C@@H](O[C@@H]2O[C@H](C)C[C@H](N(C)C)[C@H]2O)[C@](C)(O)C[C@@H](C)CN(C)[C@H](C)[C@@H](O)[C@]1(C)O` [Azithromycin, reference compound]: the IC50 in series [1] (setting [8]) turned out to be 3360 nM; in series [1] (setting [9]), 1480 nM; in series [4] (K1, 72 h of incubation, N = 3, read-out: IC50 K1 (CQ,PY)), 2720 nM. The values for the Cmax in series [2] (infected (I) humanized mice) and in series [2] (uninfected (U) humanized mice) were 344 ng/mL and 243 ng/mL, respectively. Further, the Tmax in series [2] (infected (I) humanized mice) came out at 1 h; in series [2] (uninfected (U) humanized mice), 1.67 h. Besides, the “I/U (DNAUC infected versus uninfected)” value in series [2] is reported as 1.1. Further, the entries for the “DNAUC(0–24)” value in series [2] (infected (I) humanized mice) and in series [2] (uninfected (U) humanized mice) were 161 (7) ng*h·ml^−1·mg^−1·kg^−1 and 146 (37) ng*h·ml^−1·mg^−1·kg^−1, respectively. The compound further gave an ED90 in series [3] greater than 200 mg/kg.
As to `CC[C@H]1OC(=O)[C@H](C)[C@@H](O[C@H]2C[C@@](C)(OC)[C@@H](O)[C@H](C)O2)[C@H](C)[C@@H](O[C@@H]2O[C@H](C)C[C@H](N(C)C)[C@H]2O)[C@](C)(O)C[C@@H](C)CN(CCCNc2ccnc3cc(Cl)ccc23)[C@H](C)[C@@H](O)[C@]1(C)O` [Compound 1], the IC50 in series [1] (setting [8]) was 21 nM; in series [1] (setting [9]), 11 nM; in series [5], 27 nM; in series [6] it was 20 nM; in series [4] (setting [10]), 23 nM. Moreover, the Cmax was 775 ng/mL in series [2] (infected (I) humanized mice) and 173 ng/mL in series [2] (uninfected (U) humanized mice). Moreover, the Tmax was 1 h in series [2] (infected (I) humanized mice) and 0.75 h in series [2] (uninfected (U) humanized mice). Also, in series [2], the “I/U (DNAUC infected versus uninfected)” value is 2.1. Besides, the “DNAUC(0–24)” value in series [2] (infected (I) humanized mice) is recorded as 362 (68) ng*h·ml^−1·mg^−1·kg^−1; in series [2] (uninfected (U) humanized mice), 169 (33) ng*h·ml^−1·mg^−1·kg^−1. For the same compound, in series [3] (humanized mice, oral 4‐day treatment), the “day of follow‐up up to which parasitaemia remained undetectable / parasite growth suppressed” value is no less than 24 days. The “antibacterial activity (in words)” value in series [7] is “inhibited the growth of whole cell bacteria”.
As for `CC[C@H]1OC(=O)[C@H](C)[C@@H](O)[C@H](C)[C@@H](O[C@@H]2O[C@H](C)C[C@H](N(C)C)[C@H]2OCCCNc2ccnc3ccccc23)[C@](C)(O)C[C@@H](C)CN[C@H](C)[C@@H](O)[C@]1(C)O` [Compound 3], the IC50 was 27 nM in series [1] (setting [8]); 23 nM in series [1] (setting [9]); 27 nM in series [5]; 20 nM in series [6]; 24 nM in series [4] (setting [10]). Further, the Cmax in series [2] (infected (I) humanized mice) was found to be 348 ng/mL; in series [2] (uninfected (U) humanized mice), 83.8 ng/mL. Besides, the Tmax in series [2] (infected (I) humanized mice) was 1.67 h; in series [2] (uninfected (U) humanized mice), 2.2 h. Also, the “I/U (DNAUC infected versus uninfected)” value in series [2] is given as 3.9. Also, the “DNAUC(0–24)” value in series [2] (infected (I) humanized mice) is given as 354 (129) ng*h·ml^−1·mg^−1·kg^−1; in series [2] (uninfected (U) humanized mice) it was 91 (85) ng*h·ml^−1·mg^−1·kg^−1. Also, the ED90 in series [3] worked out at 23.9 mg/kg. The “antibacterial activity (in words)” value in series [7] is “no antibacterial activity”.

The IC50 is the point on the concentration scale where inhibition reaches its midpoint. One may read the Cmax as the peak of the concentration-time curve. The term Tmax denotes the time at which the peak concentration occurs.

Source of the values: PMC9328652, “A novel class of fast‐acting antimalarial agents: Substituted 15‐membered azalides” (British Journal of Pharmacology, 2020).
